Reference: US20220287995A1, “COMPOSITIONS AND METHODS FOR INHIBITING BACTERIAL VIRULENCE AND FLIM-BASED DEVICE AND METHOD FOR ANTIBIOTIC SUSCEPTIBILITY TESTING” (THE REGENTS OF THE UNIVERSITY OF CALIFORNIA, priority 2019, published 2022)

Tested on: P. aeruginosa
Experiment: Surface density measurement of P. aeruginosa from virulence assays
Type: cell-based, Pseudomonas aeruginosa
Conditions: virulence assays after 6 hours of growth, carbon source 0.2%
Procedure: The density of P. aeruginosa cells on surface was measured as described previously (1) using amoebae cell viability phase contrast images that were acquired using a 10× or 20× objective. The IJ_Isodata algorithm (ImageJ 1.52q) was applied to phase contrast images to construct cell boundary masks. The cell density was computed by dividing the area covered by P. aeruginosa by the total area of the image.

O=C(O)CC(O)(CC(=O)O)C(=O)O [citrate]
surface density of P. aeruginosa: did not decrease the surface density
